US11098055B2, “Ester ACC inhibitors and uses thereof” (Gilead Apollo, LLC, priority 2015, dated 2021)
In brackets after ≈: the same amount, converted by molar mass. Where two headings read alike, the source gives them in different places.

What was measured:
Septoria tritici (St) = assay: Growth inhibition assay of fungal pathogens; format: cell-based; conditions: Zymoseptoria tritici, 48 h, read-out: Concentration at 90% Inhibition St
Experimental: (§1) Compounds of the present invention were evaluated in a growth inhibition assay to determine the ability to control the growth of fungal pathogens, such as Botrtyis cinerea (Bc), Collectotrichum graminicola (Cg), Diplodia maydis (Dm), Fusarium moniliforme (Fm), Fusarium virguhforme (Fv), Phytophthora capsici (Pc), Rhizoctonia solani (Rs), and Septoria tritici (St). Compounds to be tested were dissolved in DMSO at 2.5 mg/ml to produce compound stock solutions (“stocks”). Stocks were diluted with DMSO by a five-fold dilution in a 96-well stock plate, and two sets of final concentrations of 50, 10, and 2 ppm or 2, 0.4, and 0.08 ppm were obtained in vitro. A set of positive controls was also prepared, with various concentrations of Soraphen (2, 0.4, and 0.08 ppm), Metalaxyl (1.1, 0.22, and 0.04 ppm), and Metconazole (2, 0.4, and 0.08 ppm or 0.2, 0.04, and 0.008 ppm) after the five-fold dilutions. Negative controls on each plate included 2% DMSO, water, and a blank (media+2% DMSO). Fungal spores were isolated from previously sub-cultured plates of Botrtyis cinerea (Bc), Collectotrichum graminicola (Cg), Diplodia maydis (Dm), Fusarium moniliforme (Fm), Fusarium virguliforme (Fv), Phytophthora capsici (Pc), and Septoria tritici (St). The isolated spores were diluted to individual concentrations with a 17% V8 liquid media. For Rhizoctonia solani (Rs) and Pythium irregulare, 1.5 mm mycelial plugs were used in place of spores and ¼ Potato Dextrose Broth (PDB) was used for dilution. The spore concentrations and plug sizes were based on growth curves generated at 48 hours for each pathogen. In a second 96-well plate, the spores or mycelial plugs, media, diluted compound solutions, and controls were combined. Once the compound was added, a true final concentration of compound in each well was measured by an OD600 reading, which adjusted for any compound precipitation that might have occurred in the well. Plate readings were repeated at both 24 and 48 hours. The blank negative control was used as a background subtraction. Additional visual ratings were performed at both 24 and 48 hours for checking on precipitation and confirming efficacy. Visual and OD600 ratings of the compounds at 48 hours were compared to the 2% DMSO negative control, and the percent of pathogen growth inhibition was determined based on those values.

[1] = test system: Collectotrichum graminicola (Cg); assay: Growth inhibition assay of fungal pathogens; format: cell-based; conditions: 48 h, read-out: Concentration at 90% Inhibition Cg
Experimental: as §1

[2] = test system: Fusarium virguliforme (Fv); assay: Growth inhibition assay of fungal pathogens; format: cell-based; conditions: 48 h, read-out: Concentration at 90% Inhibition Fv
Experimental: as §1

Botrtyis cinerea (Bc) = assay: Growth inhibition assay of fungal pathogens; format: cell-based; conditions: 48 h, read-out: Concentration at 90% Inhibition Bc
Experimental: as §1

[3] = test system: Phytophthora capsici (Pc); assay: Growth inhibition assay of fungal pathogens; format: cell-based; conditions: 48 h, read-out: Concentration at 90% Inhibition Pc
Experimental: as §1

[4] = test system: Fusarium moniliforme (Fm); assay: Growth inhibition assay of fungal pathogens; format: cell-based; conditions: Fusarium verticillioides, 48 h, read-out: Concentration at 90% Inhibition Fm
Experimental: as §1

Diplodia maydis (Dm) = assay: Growth inhibition assay of fungal pathogens; format: cell-based; conditions: Stenocarpella maydis, 48 h, read-out: Concentration at 90% Inhibition Dm
Experimental: as §1

Rhizoctonia solani (Rs) = assay: Growth inhibition assay of fungal pathogens; format: cell-based; conditions: 48 h, read-out: Concentration at 90% Inhibition Rs
Experimental: as §1

fACC2 = fACC2 (UniProt Q00955); assay: In vitro ACC2 inhibition assay (ADP-Glo), fungal ACC2; format: biochemical
Experimental: An exemplary procedure for the in vitro ACC inhibition assay, which can be used to determine the inhibitory action of compounds of the invention toward either human (hACC2) or fungal (fACC2) ACC2, follows. The ADP-Glo™ Kinase Assay kit from Promega was used. The ADP-Glo™ Kinase Assay is a luminescent ADP detection assay to measure enzymatic activity by quantifying the amount of ADP produced during an enzyme reaction. The assay is performed in two steps; first, after the enzyme reaction, an equal volume of ADP-Glo™ Reagent is added to terminate the reaction and deplete the remaining ATP. Second, the Kinase Detection Reagent is added to simultaneously convert ADP to ATP and allow the newly synthesized ATP to be measured using a luciferase/luciferin reaction. Luminescence can be correlated to ADP concentrations by using an ATP-to-ADP conversion curve. The detailed procedure is as follows. 50 μL of the compound being tested (600 μM in DMSO) was added to a 384-well dilution plate. The compound was diluted 1:3 in succession in DMSO for each row for 11 wells. 0.5 μL ACC2 working solution was added to 384-well white Optiplate assay plate. 0.5 μL diluted compound solution in each column from step 2 was added to assay plate, each row containing 2 replicates. For the last 2 rows, 0.5 μL negative control (DMSO) was added in one row and 0.5 μL positive control (compound I-97) in the other. The plates were incubated at room temperature for 15 minutes. 5 μL substrate working solution was added to each well to initiate reaction. Final ACC2 reaction concentrations consist of: 5 nM ACC2, 20 μM ATP, 20 μM acetyl-CoA, 12 mM NaHCO3, 0.01% Brij35, 2 mM DTT, 5% DMSO, test compound concentrations: 30 μM, 10 μM, 3.33 μM, 1.11 μM, 0.37 μM, 0.123 μM, 0.0411 μM, 0.0137 μM, 0.00457 μM, 0.00152 μM, and 0.00051 μM. Plates were incubated at room temperature for 60 minutes. 10 μL ADP glo reagent was added. Plates were incubated at room temperature for 40 minutes. 20 μL kinase detection reagent was added. Plates were incubated at room temperature for 40 minutes, and then read on a Perkin Elmer EnVision 2104 plate reader for luminescence as Relative Light Units (RLU).
Data for each concentration, as well as the positive and negative controls, were averaged, and the standard deviation calculated. Percent inhibition was calculated by the formula: 100×(average negative control−compound)/(average negative control−average positive control). The IC50 for each compound was calculated by fitting the data with a non-linear regression equation: Y=Bottom+(Top−Bottom)/(1+10^((Log IC50−X)*HillSlope)), where X is the log of compound concentration and Y is percent inhibition.

fACC2, sequence (Q00955 whole entry): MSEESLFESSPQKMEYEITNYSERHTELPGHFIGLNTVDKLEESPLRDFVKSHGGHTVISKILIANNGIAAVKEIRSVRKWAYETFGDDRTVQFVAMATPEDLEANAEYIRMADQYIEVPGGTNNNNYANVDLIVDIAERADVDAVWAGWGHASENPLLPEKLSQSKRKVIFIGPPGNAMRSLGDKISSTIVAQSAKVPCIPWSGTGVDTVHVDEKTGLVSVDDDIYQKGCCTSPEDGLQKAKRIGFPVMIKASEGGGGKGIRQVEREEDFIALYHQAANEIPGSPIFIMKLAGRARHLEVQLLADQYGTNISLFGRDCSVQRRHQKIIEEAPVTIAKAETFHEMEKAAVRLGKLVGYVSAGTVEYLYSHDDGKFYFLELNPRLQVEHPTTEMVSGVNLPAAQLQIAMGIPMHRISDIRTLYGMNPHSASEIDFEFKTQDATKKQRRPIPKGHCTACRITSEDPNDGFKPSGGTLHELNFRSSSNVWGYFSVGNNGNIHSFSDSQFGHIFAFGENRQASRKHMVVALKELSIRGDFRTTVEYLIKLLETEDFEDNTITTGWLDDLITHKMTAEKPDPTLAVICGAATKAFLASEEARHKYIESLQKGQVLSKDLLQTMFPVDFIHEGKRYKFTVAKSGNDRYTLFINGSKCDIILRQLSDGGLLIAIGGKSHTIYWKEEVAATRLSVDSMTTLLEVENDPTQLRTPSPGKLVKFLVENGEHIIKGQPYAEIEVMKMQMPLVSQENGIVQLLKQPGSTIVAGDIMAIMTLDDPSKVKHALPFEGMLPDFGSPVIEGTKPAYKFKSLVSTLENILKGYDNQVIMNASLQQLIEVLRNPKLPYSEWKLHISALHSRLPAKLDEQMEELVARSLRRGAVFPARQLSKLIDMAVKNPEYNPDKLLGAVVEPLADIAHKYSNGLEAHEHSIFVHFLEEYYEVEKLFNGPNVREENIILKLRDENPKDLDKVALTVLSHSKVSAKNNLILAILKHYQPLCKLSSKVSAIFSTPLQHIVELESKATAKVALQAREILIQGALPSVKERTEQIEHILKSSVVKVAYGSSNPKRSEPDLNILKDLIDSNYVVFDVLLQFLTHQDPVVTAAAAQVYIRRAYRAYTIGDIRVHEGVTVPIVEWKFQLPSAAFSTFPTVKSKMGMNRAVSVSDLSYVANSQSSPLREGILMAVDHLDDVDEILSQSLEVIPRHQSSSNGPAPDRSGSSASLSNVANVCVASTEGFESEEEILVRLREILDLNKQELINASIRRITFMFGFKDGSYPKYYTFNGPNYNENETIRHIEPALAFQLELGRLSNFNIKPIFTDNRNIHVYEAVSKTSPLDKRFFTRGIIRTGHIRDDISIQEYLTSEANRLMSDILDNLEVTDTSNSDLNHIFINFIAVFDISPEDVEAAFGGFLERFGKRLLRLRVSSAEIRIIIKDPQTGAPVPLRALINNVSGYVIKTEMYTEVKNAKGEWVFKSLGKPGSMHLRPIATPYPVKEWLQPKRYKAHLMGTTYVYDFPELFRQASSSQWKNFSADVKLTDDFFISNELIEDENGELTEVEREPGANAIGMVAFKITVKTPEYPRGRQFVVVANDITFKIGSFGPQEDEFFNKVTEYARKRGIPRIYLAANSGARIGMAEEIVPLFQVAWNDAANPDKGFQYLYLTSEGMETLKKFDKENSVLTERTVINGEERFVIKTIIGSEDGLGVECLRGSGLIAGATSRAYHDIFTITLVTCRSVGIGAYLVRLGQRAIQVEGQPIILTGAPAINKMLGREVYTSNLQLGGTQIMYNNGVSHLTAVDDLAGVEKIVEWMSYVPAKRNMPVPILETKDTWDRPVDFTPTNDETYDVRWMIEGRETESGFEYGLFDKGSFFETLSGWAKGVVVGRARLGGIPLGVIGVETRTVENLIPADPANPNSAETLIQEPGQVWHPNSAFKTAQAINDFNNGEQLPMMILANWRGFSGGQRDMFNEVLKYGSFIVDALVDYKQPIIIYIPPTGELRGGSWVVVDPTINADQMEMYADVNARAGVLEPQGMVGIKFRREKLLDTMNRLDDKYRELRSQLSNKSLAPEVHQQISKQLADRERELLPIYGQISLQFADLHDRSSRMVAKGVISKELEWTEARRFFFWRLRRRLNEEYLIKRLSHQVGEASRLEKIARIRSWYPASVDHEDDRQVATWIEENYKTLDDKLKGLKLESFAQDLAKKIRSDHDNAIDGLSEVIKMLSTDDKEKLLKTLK

SMILES | IC90 (Septoria tritici (St); Table 4b) [µg/mL] | IC90 ([1]; Table 4b) [µg/mL] | IC90 ([2]; Table 4b) [µg/mL] | IC90 (Botrtyis cinerea (Bc); Table 4b) [µg/mL] | IC90 ([3]; Table 4b) [µg/mL] | IC90 ([4]; Table 4b) [µg/mL] | IC90 (Diplodia maydis (Dm); Table 4b) [µg/mL] | IC90 (Rhizoctonia solani (Rs); Table 4b) [µg/mL] | IC50 (fACC2; Table 2b (additional results)) [nM] | IC90 (Septoria tritici (St); Table 4a) [µg/mL] | IC90 ([1]; Table 4a) [µg/mL] | IC90 ([2]; Table 4a) [µg/mL] | IC90 (Botrtyis cinerea (Bc); Table 4a) [µg/mL] | IC90 ([3]; Table 4a) [µg/mL] | IC90 ([4]; Table 4a) [µg/mL] | IC90 (Diplodia maydis (Dm); Table 4a) [µg/mL] | IC90 (Rhizoctonia solani (Rs); Table 4a) [µg/mL] | IC50 (fACC2; Table 2a) [nM]
CCOC(=O)c1sc2c(c1C)c(=O)n(C(C)(C)C(=O)NC(C)C)c(=O)n2C[C@H](OCC#N)c1cc(F)ccc1OC [Compound I-33, ethyl (R)-1-(2-(cyanomethoxy)-2-(5-fluoro-2-methoxy-phenyl)ethyl)-3-(1-(isopropylamino)-2-methyl-1-oxopropan-2-yl)-5-methyl-2,4-dioxo-1,2,3,4-tetrahydrothieno[2,3-d]pyrimidine-6-carboxylate] | 10 (≈ 17 µM) | 2 (≈ 3.4 µM) | 0.4 (≈ 0.68 µM) | 0.4 (≈ 0.68 µM) | ≥ 50 | 0.08 (≈ 0.136 µM) | 2 (≈ 3.4 µM) | 0.4 (≈ 0.68 µM) | 0.3 to 3 |  |  |  |  |  |  |  |  | 
CCOC(=O)c1sc2c(c1C)c(=O)n(C(C)(C)C(=O)N1CCCC1)c(=O)n2C[C@H](OCCOC)c1cc(F)ccc1OC [Compound I-13, (R)-ethyl 1-(2-(5-fluoro-2-methoxyphenyl)-2-(2-methoxy-ethoxy)ethyl)-5-methyl-3-(2-methyl-1-oxo-1-(pyrrolidin-1-yl)propan-2-yl)-2,4-dioxo-1,2,3,4-tetrahydrothieno[2,3-d]pyrimidine-6-carboxylate] | ≥ 50 | 2 (≈ 3.23 µM) | 2 (≈ 3.23 µM) | 2 (≈ 3.23 µM) | ≥ 50 | 0.4 (≈ 0.645 µM) | 10 (≈ 16.1 µM) | 10 (≈ 16.1 µM) |  | ≥ 50 | 2 (≈ 3.23 µM) | 2 (≈ 3.23 µM) | 2 (≈ 3.23 µM) | ≥ 50 | 0.4 (≈ 0.645 µM) | ≥ 50 | ≥ 50 | 0.6 to 3
CCOC(=O)c1sc2c(c1C)c(=O)n(C(C)(C)C(=O)NC(C)C)c(=O)n2C[C@H](OCC(C)(C)C#N)c1cc(F)ccc1OC [Compound I-37, ethyl (R)-1-(2-(2-cyano-2-methylpropoxy)-2-(5-fluoro-2-methoxyphenyl)ethyl)-3-(1-(isopropylamino)-2-methyl-1-oxopropan-2-yl)-5-methyl-2,4-dioxo-1,2,3,4-tetrahydrothieno[2,3-d]pyrimidine-6-carboxylate] | ≥ 50 | 0.4 (≈ 0.634 µM) | 0.4 (≈ 0.634 µM) | 0.4 (≈ 0.634 µM) | ≥ 50 | 0.08 (≈ 0.127 µM) | 0.4 (≈ 0.634 µM) | 2 (≈ 3.17 µM) | 0.3 to 3 |  |  |  |  |  |  |  |  | 
CCNC(=O)[C@H](C)n1c(=O)c2c(C)c(C(=O)OCC)sc2n(C[C@H](OCCC#N)c2cc(F)ccc2OC)c1=O [Compound I-42, ethyl 1-((R)-2-(2-cyanoethoxy)-2-(5-fluoro-2-methoxyphenyl)ethyl)-3-((S)-1-(ethylamino)-1-oxopropan-2-yl)-5-methyl-2,4-dioxo-1,2,3,4-tetrahydrothieno[2,3-d]pyrimidine-6-carboxylate] | ≥ 50 | 2 (≈ 3.48 µM) | 0.4 (≈ 0.696 µM) | 0.4 (≈ 0.696 µM) | ≥ 50 | 0.08 (≈ 0.139 µM) | 2 (≈ 3.48 µM) | 2 (≈ 3.48 µM) | 0.3 to 3 |  |  |  |  |  |  |  |  | 
CCOC(=O)c1sc2c(c1C)c(=O)n(C(C)(C)C(=O)NC(C)C)c(=O)n2C[C@H](O)c1cc(F)ccc1OC [Compound I-19, (R)-ethyl 1-(2-(5-fluoro-2-methoxyphenyl)-2-hydroxyethyl)-3-(1-(isopropylamino)-2-methyl-1-oxopropan-2-yl)-5-methyl-2,4-dioxo-1,2,3,4-tetrahydrothieno[2,3-d]pyrimidine-6-carboxylate] | ≥ 50 | 2 (≈ 3.64 µM) | 0.08 (≈ 0.146 µM) | 0.4 (≈ 0.728 µM) | ≥ 50 | 0.08 (≈ 0.146 µM) | 2 (≈ 3.64 µM) | 0.4 (≈ 0.728 µM) |  | ≥ 50 | 2 (≈ 3.64 µM) | 0.08 (≈ 0.146 µM) | 0.4 (≈ 0.728 µM) | ≥ 50 | 0.08 (≈ 0.146 µM) | 2 (≈ 3.64 µM) | 0.4 (≈ 0.728 µM) | 
